From ChEMBL document CHEMBL5050844 (2019)

Key:
[1] = Induction of anti-CD3 antibodies-stimulated human T cell activation at 1 uM assessed fold increase in IL-2 secretion measured by ELISA assay; format: functional, T cell line; further: reference of the scale not given here
[2] = Induction of anti-CD3/CD28 antibodies-stimulated human T cell activation at 0.3 uM assessed fold increase in IL-2 secretion measured by ELISA assay; format: functional, T cell line
[3] = Induction of anti-CD3 antibodies-stimulated human exhausted CD4+ T cell activation assessed fold increase in CTLA4 expression measured by flow cytometry analysis; format: functional, T cell line; further: reference of the scale not given here
[4] = Induction of anti-CD3 antibodies-stimulated human exhausted T cell activation assessed fold increase in GM-CSF secretion measured by ELISA assay; format: functional, T cell line; further: reference of the scale not given here
[5] = Induction of anti-CD3/CD28 antibodies-stimulated human CD8+ T cell activation at 10 uM assessed fold increase in cell proliferation measured by flow cytometry analysis; format: functional, T cell line
[6] = Induction of anti-CD3 antibodies-stimulated human exhausted T cell activation assessed fold increase in IL-2 secretion measured by ELISA assay; format: functional, T cell line; further: reference of the scale not given here
[7] = Induction of anti-CD3/CD28 antibodies-stimulated human T cell activation at 1 uM assessed fold increase in IL-2 secretion measured by ELISA assay; format: functional, T cell line
[8] = Induction of anti-CD3/CD28 antibodies-stimulated human T cell activation at 1.11 uM assessed fold increase in IFN-gamma secretion measured by ELISA assay; format: functional, T cell line
[9] = Induction of anti-CD3 antibodies-stimulated human CD8+ T cell activation at 1.11 uM assessed fold increase in cell proliferation measured by flow cytometry analysis; format: functional, T cell line; further: reference of the scale not given here
[10] = Induction of anti-CD3 antibodies-stimulated human exhausted CD8+ T cell activation assessed fold increase in CTLA4 expression measured by flow cytometry analysis; format: functional, T cell line; further: reference of the scale not given here
[11] = Induction of activation of human CD56+ CD3- NK cells co-cultured with human K562 cells in 1:1 ratio and assessed as increase in TNF-alpha secretion at 10 uM measured by ELISA assay; format: functional, Natural killer cell
[12] = Induction of anti-CD3 antibodies-stimulated human CD4+ T cell activation at 1.11 uM assessed fold increase in CD69 expression measured by flow cytometry analysis; format: functional, T cell line; further: reference of the scale not given here
B cell = test: Induction of anti-IgM-stimulated human CD20+ B cell activation at 10 to 1000 uM assessed as increase in CD69 expression measured as mean fluorescence intensity AUC by flow cytometry analysis; format: functional, cell-based; conditions: dose 10-1000 µM
[13] = Induction of anti-CD3/CD28 antibodies-stimulated human T cell activation at 1 uM assessed fold increase in CD25 expression measured by ELISA assay; format: functional, T cell line
[14] = Induction of activation of human CD56+ CD3- NK cells co-cultured with human K562 cells in 1:1 ratio and assessed as increase in IFN-gamma secretion at 0.625 uM measured by ELISA assay; format: functional, Natural killer cell
[15] = Induction of anti-CD3 antibodies-stimulated human T cell activation at 1.11 uM assessed fold increase in GM-CSF secretion measured by ELISA assay; format: functional, T cell line; further: reference of the scale not given here
[16] = Induction of anti-CD3/CD28 antibodies-stimulated human anergic T cell activation at 10 uM assessed fold increase in IFN-gamma secretion measured by ELISA assay; format: functional, T cell line
[17] = Induction of anti-CD3/CD28 antibodies-stimulated human T cell activation at 10 uM assessed fold increase in TNF-alpha secretion measured by ELISA assay; format: functional, T cell line
[18] = Induction of activation of human CD56+ CD3- NK cells co-cultured with human K562 cells in 1:1 ratio and assessed as increase in IFN-gamma secretion at 2.5 uM measured by ELISA assay; format: functional, Natural killer cell
[19] = Induction of anti-CD3 antibodies-stimulated human T cell activation at 10 uM assessed fold increase in TNF-alpha secretion measured by ELISA assay; format: functional, T cell line; further: reference of the scale not given here
[20] = Induction of anti-CD3/CD28 antibodies-stimulated human CD8+ T cell activation at 1.11 uM assessed fold increase in cell proliferation measured by flow cytometry analysis; format: functional, T cell line
[21] = Induction of anti-CD3/CD28 antibodies-stimulated human T cell activation at 0.3 uM assessed fold increase in CD25 expression measured by ELISA assay; format: functional, T cell line
[22] = Induction of anti-CD3 antibodies-stimulated human CD4+ T cell activation at 10 uM assessed fold increase in CD69 expression measured by flow cytometry analysis; format: functional, T cell line; further: reference of the scale not given here
[23] = Induction of anti-CD3 antibodies-stimulated human T cell activation at 1 uM assessed fold increase in CD25 expression measured by ELISA assay; format: functional, T cell line; further: reference of the scale not given here
[24] = Induction of anti-CD3 antibodies-stimulated human T cell activation at 8 uM assessed fold increase in CD25 expression measured by ELISA assay; format: functional, T cell line; further: reference of the scale not given here
[25] = Induction of anti-CD3 antibodies-stimulated human T cell activation at 10 uM assessed fold increase in GM-CSF secretion measured by ELISA assay; format: functional, T cell line; further: reference of the scale not given here
[26] = Induction of anti-CD3/CD28 antibodies-stimulated human CD8+ T cell activation at 1.11 uM assessed fold increase in CD69 expression measured by flow cytometry analysis; format: functional, T cell line
[27] = Induction of anti-CD3 antibodies-stimulated human T cell activation at 8 uM assessed fold increase in IL-2 secretion measured by ELISA assay; format: functional, T cell line; further: reference of the scale not given here
[28] = Induction of anti-CD3/CD28 antibodies-stimulated human T cell activation at 4 uM assessed fold increase in CD25 expression measured by ELISA assay; format: functional, T cell line
[29] = Induction of activation of human CD56+ CD3- NK cells co-cultured with human K562 cells in 1:1 ratio and assessed as increase in IFN-gamma secretion at 10 uM measured by ELISA assay; format: functional, Natural killer cell
[30] = Induction of anti-CD3 antibodies-stimulated human T cell activation at 10 uM assessed fold increase in IFN-gamma secretion measured by ELISA assay; format: functional, T cell line; further: reference of the scale not given here
[31] = Induction of anti-CD3/CD28 antibodies-stimulated human anergic T cell activation at 0.37 uM assessed fold increase in IFN-gamma secretion measured by ELISA assay; format: functional, T cell line
[32] = Induction of anti-CD3/CD28 antibodies-stimulated human T cell activation at 1.11 uM assessed fold increase in GM-CSF secretion measured by ELISA assay; format: functional, T cell line
[33] = Induction of anti-CD3/CD28 antibodies-stimulated human CD4+ T cell activation at 10 uM assessed fold increase in CD69 expression measured by flow cytometry analysis; format: functional, T cell line
[34] = Induction of anti-CD3 antibodies-stimulated human CD8+ T cell activation at 10 uM assessed fold increase in CD69 expression measured by flow cytometry analysis; format: functional, T cell line; further: reference of the scale not given here
[35] = Induction of activation of human CD56+ CD3- NK cells co-cultured with human K562 cells in 1:1 ratio and assessed as increase in TNF-alpha secretion at 0.625 uM measured by ELISA assay; format: functional, Natural killer cell
[36] = Induction of allogenic human T cell activation at 10 uM assessed fold increase in cell proliferation; format: functional, T cell line
[37] = Induction of anti-CD3/CD28 antibodies-stimulated human CD4+ T cell activation at 1.11 uM assessed fold increase in CD69 expression measured by flow cytometry analysis; format: functional, T cell line

Cc1cc(C(=O)Nc2cccc([C@@H](C)Cc3nncn3C)c2)nc(C2CC2)n1
fold change (FC) [1]: 0.051 | fold change (FC) [2]: 1.01 | fold change (FC) [3]: <=1.4 | fold change (FC) [4]: <=1.4 | fold change (FC) [5]: >4 | fold change (FC) [6]: <=2.5 | fold change (FC) [7]: 1.01 | fold change (FC) [8]: 3.01 | fold change (FC) [9]: 2.01 | fold change (FC) [10]: <=1.4 | fold change (FC) [11]: 1.01 | fold change (FC) [12]: 1.401 | AUC (B cell): 1.01 | fold change (FC) [13]: 1.01 | fold change (FC) [14]: 1.01 | fold change (FC) [15]: <=1.5 | fold change (FC) [16]: <=2.5 | fold change (FC) [17]: 2.01 | fold change (FC) [18]: 1.01 | fold change (FC) [19]: <=1.5 | fold change (FC) [20]: 2.01 | fold change (FC) [21]: 1.01 | fold change (FC) [22]: >1.601 | fold change (FC) [23]: 0.801 | fold change (FC) [24]: >=1.001 | fold change (FC) [25]: 1.51 | fold change (FC) [26]: 1.201 | fold change (FC) [27]: 0.101 | fold change (FC) [28]: 1.01 | fold change (FC) [29]: 2.01 | fold change (FC) [30]: <=2 | fold change (FC) [31]: <=2.5 | fold change (FC) [32]: 1.51 | fold change (FC) [33]: 1.401 | fold change (FC) [34]: 1.201 | fold change (FC) [35]: <=1 | fold change (FC) [36]: <=2 | fold change (FC) [37]: 1.401

Cc1n[nH]c(C)c1-c1cc2c(c(C(F)(F)F)c1)CN(c1cccc(C3(Cc4nncn4C)COC3)c1)C2=O
fold change (FC) [1]: 0.101 | fold change (FC) [2]: 1.01 | fold change (FC) [3]: >1.61 | fold change (FC) [4]: <=1.4 | fold change (FC) [5]: 3.01 | fold change (FC) [6]: <=2.5 | fold change (FC) [7]: 2.51 | fold change (FC) [8]: <=2 | fold change (FC) [9]: 3.01 | fold change (FC) [10]: >1.61 | fold change (FC) [11]: 2.01 | fold change (FC) [12]: 1.401 | AUC (B cell): 1.01 | fold change (FC) [13]: 1.01 | fold change (FC) [14]: 1.01 | fold change (FC) [15]: 1.51 | fold change (FC) [16]: >4.01 | fold change (FC) [17]: 2.01 | fold change (FC) [18]: 1.01 | fold change (FC) [19]: 1.51 | fold change (FC) [20]: 2.01 | fold change (FC) [21]: 1.01 | fold change (FC) [22]: >1.601 | fold change (FC) [23]: >=1.001 | fold change (FC) [24]: >=1.001 | fold change (FC) [25]: 2.01 | fold change (FC) [26]: 1.201 | fold change (FC) [27]: >=0.201 | fold change (FC) [28]: 1.31 | fold change (FC) [29]: 2.01 | fold change (FC) [30]: <=2 | fold change (FC) [31]: <=2.5 | fold change (FC) [32]: 1.51 | fold change (FC) [33]: 1.401 | fold change (FC) [34]: 1.401 | fold change (FC) [35]: <=1 | fold change (FC) [36]: <=2 | fold change (FC) [37]: 1.201

C[C@H](Cc1nncn1C)c1cccc(NC(=O)c2nc(C(F)(F)F)c[nH]2)c1
fold change (FC) [1]: 0.051 | fold change (FC) [2]: 1.01 | fold change (FC) [3]: <=1.4 | fold change (FC) [4]: <=1.4 | fold change (FC) [5]: 3.01 | fold change (FC) [6]: >3.01 | fold change (FC) [7]: 2.51 | fold change (FC) [8]: <=2 | fold change (FC) [9]: 2.01 | fold change (FC) [10]: <=1.4 | fold change (FC) [11]: 2.01 | fold change (FC) [12]: 1.201 | AUC (B cell): < 0.5 | fold change (FC) [13]: 1.01 | fold change (FC) [14]: 2.01 | fold change (FC) [15]: 1.51 | fold change (FC) [16]: 2.51 | fold change (FC) [17]: 2.01 | fold change (FC) [18]: 1.01 | fold change (FC) [19]: 1.51 | fold change (FC) [20]: 2.01 | fold change (FC) [21]: 1.01 | fold change (FC) [22]: 1.401 | fold change (FC) [23]: 0.801 | fold change (FC) [24]: >=1.001 | fold change (FC) [25]: 2.01 | fold change (FC) [26]: <=1.2 | fold change (FC) [27]: >=0.201 | fold change (FC) [28]: 1.01 | fold change (FC) [29]: 2.01 | fold change (FC) [30]: 2.01 | fold change (FC) [31]: <=2.5 | fold change (FC) [32]: 1.51 | fold change (FC) [33]: 1.401 | fold change (FC) [34]: 1.201 | fold change (FC) [35]: 1.01 | fold change (FC) [36]: <=2 | fold change (FC) [37]: 1.201

C[C@H](Cc1nncn1C)c1cccc(NC(=O)c2cc3cc(N4CCNCC4)ccc3cn2)c1.Cl
fold change (FC) [1]: 0.101 | fold change (FC) [2]: <=1 | fold change (FC) [3]: 1.41 | fold change (FC) [4]: <=1.4 | fold change (FC) [5]: 2.01 | fold change (FC) [6]: <=2.5 | fold change (FC) [7]: 1.01 | fold change (FC) [8]: <=2 | fold change (FC) [9]: 2.01 | fold change (FC) [10]: 1.41 | fold change (FC) [11]: 1.01 | fold change (FC) [12]: 1.401 | AUC (B cell): 1.01 | fold change (FC) [13]: 1.01 | fold change (FC) [14]: 1.01 | fold change (FC) [15]: 1.51 | fold change (FC) [16]: 2.51 | fold change (FC) [17]: 1.51 | fold change (FC) [18]: <=1 | fold change (FC) [19]: <=1.5 | fold change (FC) [20]: 2.01 | fold change (FC) [21]: 1.01 | fold change (FC) [22]: 1.401 | fold change (FC) [23]: 0.801 | fold change (FC) [24]: 0.801 | fold change (FC) [25]: 1.51 | fold change (FC) [26]: <=1.2 | fold change (FC) [27]: 0.101 | fold change (FC) [28]: 1.01 | fold change (FC) [29]: 2.01 | fold change (FC) [30]: <=2 | fold change (FC) [31]: <=2.5 | fold change (FC) [32]: 1.51 | fold change (FC) [33]: 1.401 | fold change (FC) [34]: 1.201 | fold change (FC) [35]: <=1 | fold change (FC) [36]: <=2 | fold change (FC) [37]: 1.201
